Values after ≈ are worked out from the molar mass of the structure shown.
tested on: Escherichia coli; assay: Antibacterial activity against Escherichia coli MG1655 measured every 15 mins for 12 hrs; format: functional; conditions: K-12 substr. MG1655

`NCC[C@H](O)C(=O)N[C@@H]1C[C@H](N)[C@@H](O[C@H]2O[C@H](CN)[C@@H](O)[C@H](O)[C@H]2O)[C@H](O)[C@H]1O[C@H]1O[C@H](CO)[C@@H](O)[C@H](N)[C@H]1O` [AMIKACIN] and `CO[C@@]1(NC(=O)Cc2cccs2)C(=O)N2C(C(=O)O)=C(COC(N)=O)CS[C@@H]21` [CEFOXITIN] are within 1.5-fold of each other in MIC: 4 µg/mL (≈ 6.83 µM) for the first, 4.5 µg/mL (≈ 10.5 µM) for the second.

Going from `O=C(N[C@H](CO)[C@H](O)c1ccc([N+](=O)[O-])cc1)C(Cl)Cl` [CHLORAMPHENICOL] to `CC[C@H]1OC(=O)[C@H](C)[C@@H](O[C@H]2C[C@@](C)(OC)[C@@H](O)[C@H](C)O2)[C@H](C)[C@@H](O[C@@H]2O[C@H](C)C[C@H](N(C)C)[C@H]2O)[C@](C)(OC)C[C@@H](C)C(=O)[C@H](C)[C@@H](O)[C@]1(C)O` [CLARITHROMYCIN], the MIC rises from 5 µg/mL (≈ 15.5 µM) to 22 µg/mL (≈ 29.4 µM) (4.4-fold).

Going from `CC[C@H]1OC(=O)[C@H](C)[C@@H](O[C@H]2C[C@@](C)(OC)[C@@H](O)[C@H](C)O2)[C@H](C)[C@@H](O[C@@H]2O[C@H](C)C[C@H](N(C)C)[C@H]2O)[C@](C)(O)C[C@@H](C)C(=O)[C@H](C)[C@@H](O)[C@]1(C)O` [ERYTHROMYCIN] to `O=c1[nH]cc(F)c(=O)[nH]1` [FLUOROURACIL], the MIC rises from 13 µg/mL (≈ 17.7 µM) to 25 µg/mL (≈ 192 µM) (1.9-fold).

Compared with `CC(=O)O[C@H]1C[C@@]2(C)[C@@H](C[C@@H](O)[C@H]3[C@@]4(C)CC[C@@H](O)[C@@H](C)[C@@H]4CC[C@@]32C)/C1=C(\CCC=C(C)C)C(=O)O` [FUSIDIC ACID], `NC[C@H]1O[C@H](O[C@H]2[C@H](O)[C@@H](O[C@H]3O[C@H](CO)[C@@H](O)[C@H](N)[C@H]3O)[C@H](N)C[C@@H]2N)[C@H](O)[C@@H](O)[C@@H]1O` [KANAMYCIN] is 57-fold lower in MIC: 800 µg/mL (≈ 1550 µM) for the first, 14 µg/mL (≈ 28.9 µM) for the second.

First: C/C(=C\C(=O)OCCCCCCCCC(=O)O)C[C@@H]1OC[C@H](C[C@@H]2O[C@H]2[C@@H](C)[C@H](C)O)[C@@H](O)[C@H]1O [MUPIROCIN]
Second: CCn1cc(C(=O)O)c(=O)c2ccc(C)nc21 [NALIDIXIC ACID]
The MIC of the first is 13-fold higher: 66 µg/mL (≈ 132 µM) for the first, 5 µg/mL (≈ 21.5 µM) for the second.

First: O=C1CN(/N=C/c2ccc([N+](=O)[O-])o2)C(=O)N1 [NITROFURANTOIN]
Second: Cc1onc(-c2ccccc2)c1C(=O)N[C@@H]1C(=O)N2[C@@H]1SC(C)(C)[C@@H]2C(=O)O [OXACILLIN]
The MIC of the first is 16-fold lower: 12 µg/mL (≈ 50.4 µM) for the first, 190 µg/mL (≈ 473 µM) for the second.

First: CC1(C)S[C@@H]2[C@H](NC(=O)Cc3ccccc3)C(=O)N2[C@H]1C(=O)O [PENICILLIN G]
Second: N=C(N)c1ccc(OCCCCCOc2ccc(C(=N)N)cc2)cc1 [PENTAMIDINE]
The MIC of the first is 5-fold lower: 20 µg/mL (≈ 59.8 µM) for the first, 100 µg/mL (≈ 294 µM) for the second.

Compared with `CO[C@H]1/C=C/O[C@@]2(C)Oc3c(C)c(O)c4c(O)c(c(/C=N/N5CCN(C)CC5)c(O)c4c3C2=O)NC(=O)/C(C)=C\C=C\[C@H](C)[C@H](O)[C@@H](C)[C@@H](O)[C@@H](C)[C@H](OC(C)=O)[C@@H]1C` [RIFAMPIN], `CC[C@H]1OC(=O)[C@H](C)[C@@H](O[C@H]2C[C@@](C)(OC)[C@@H](O)[C@H](C)O2)[C@H](C)[C@@H](O[C@@H]2O[C@H](C)C[C@H](N(C)C)[C@H]2O)[C@](C)(O)C[C@@H](C)/C(=N\OCOCCOC)[C@H](C)[C@@H](O)[C@]1(C)O` [ROXITHROMYCIN] is 25-fold higher in MIC: 2.5 µg/mL (≈ 3.04 µM) for the first, 62 µg/mL (≈ 74.1 µM) for the second.

First: CN[C@@H]1[C@H](O)[C@H](NC)[C@H]2O[C@@]3(O)C(=O)C[C@@H](C)O[C@H]3O[C@@H]2[C@H]1O [SPECTINOMYCIN]
Second: CN(C)[C@@H]1C(O)=C(C(N)=O)C(=O)[C@@]2(O)C(O)=C3C(=O)c4c(O)cccc4[C@@](C)(O)[C@H]3C[C@@H]12 [TETRACYCLINE]
The MIC of the first is 3.2-fold lower: 5.6 µg/mL (≈ 16.8 µM) for the first, 18 µg/mL (≈ 40.5 µM) for the second.

Going from `NC[C@H]1O[C@H](O[C@H]2[C@H](O)[C@@H](O[C@H]3O[C@H](CO)[C@@H](O)[C@H](N)[C@H]3O)[C@H](N)C[C@@H]2N)[C@H](N)C[C@@H]1O` [TOBRAMYCIN] to `COc1cc(Cc2cnc(N)nc2N)cc(OC)c1OC` [TRIMETHOPRIM], the MIC falls from 2.5 µg/mL (≈ 5.35 µM) to 0.35 µg/mL (≈ 1.21 µM) (7.1-fold).

Compared with `CN[C@H](CC(C)C)C(=O)N[C@H]1C(=O)N[C@@H](CC(N)=O)C(=O)N[C@H]2C(=O)N[C@H]3C(=O)N[C@H](C(=O)N[C@H](C(=O)O)c4cc(O)cc(O)c4-c4cc3ccc4O)[C@H](O)c3ccc(c(Cl)c3)Oc3cc2cc(c3O[C@@H]2O[C@H](CO)[C@@H](O)[C@H](O)[C@H]2O[C@H]2C[C@](C)(N)[C@H](O)[C@H](C)O2)Oc2ccc(cc2Cl)[C@H]1O` [VANCOMYCIN], GENTAMICIN is 60-fold lower in MIC: 180 µg/mL (≈ 124 µM) for the first, 3 µg/mL for the second.

— ChEMBL document CHEMBL4049433, “Prediction of Antibiotic Interactions Using Descriptors Derived from Molecular Structure” (2017)
